Source: PubChem BioAssay AID1963860 (Molecular Pharmacology Branch, DTP, NCI, 2024)

System: CN0375-F725-PDC KRAS spheroid viability
Assay: Anticancer human tumor CN0375-F725-PDC patient-derived colon carcinoma cell line growth inhibition [KRAS2]
Conditions: spheroids with HUVEC and MSC; for IC50: curve of first compound; for viability, T/C: stronger effect = lower value
From the text: Multicellular complex tumor spheroid response to RAS pathway inhibitors in combination with a targeted agents in patient-derived cell lines with oncogenic KRAS variants from multiple cancer types
A high-throughput screen of multi-cell type tumor spheroids was designed to identify active combinations of targeted small molecules and KRAS pathway inhibitors. Complex spheroids include a stromal component modeled by human endothelial cells (HUVEC) and fibroblasts modeled by human mesenchymal stem cells (MSCs). The concentration ranges selected for each drug and investigational agent were based upon clinically achievable concentrations if the clinical Cmax of the agent was known.
Compounds. The drugs and investigational agents: BI-3406 (NSC825286), BAY-293 (NSC824723), batoprotafib (TNO155; NSC825523), sotorasib (AMG 510; NSC818433), MRTX1257 (NSC819558), elimusertib (BAY 1895344; NSC800525), molibresib (GSK525762; NSC774829), temuterkib (LY3214996; NSC803410), venetoclax (NSC766270), alisertib (NSC759677), olaparib (NSC753686), talazoparib (NSC767125), erdafitinib (NSC781556), ipatasertib (NSC767898), cabozantinib (NSC761068), nintedanib (NSC756659), abemaciclib (NSC768073), docetaxel (NSC628503), trametinib (NSC758246), and sapanisertib (NSC764658) were obtained from the National Cancer Institute (NCI) Developmental Therapeutics Program Chemical Repository. The FDA-approved anticancer drug set is available from the Developmental Therapeutics Program. […] The stock solutions were prepared in dimethyl sulfoxide (DMSO, Sigma-Aldrich, St. Louis, MO, cat. D2650) at 800-fold the tested concentration and stored at -70 degrees C prior to their use. All drugs and investigational agents were tested over a range starting from a high concentration at or near the clinical Cmax and decreasing in half-log increments. If the clinical Cmax for an agent had not been determined, the highest concentration tested was 10 microM.
Cell Culture. All cells were maintained in an incubator at 37 degrees C and 5% CO2 with 95% humidity. The PDC lines were cultured according to standard operating procedures established by the NCI PDMR (https://pdmr.cancer.gov/sops/default.htm). Briefly, all PDCs were thawed and cultured in Matrigel-coated flasks prepared with a working solution of 1X Ham's F-12 nutrient mix, without supplementation (Invitrogen, Waltham, MA, cat. 11765054), 100 U/mL penicillin-streptomycin (Invitrogen, cat. 15140122), and 2.5% Matrigel (Corning Inc., Corning, NY, cat. 354248) for the first three passages. All PDCs were cultured in complete DMEM/F-12 media containing advanced DMEM/F-12 (Invitrogen, cat. 12634028), 4.9% defined fetal bovine serum, heat inactivated (HyClone Laboratories Inc., Logan, UT, cat. SH30070.03HI), 389 ng/mL hydrocortisone (Sigma-Aldrich, cat. H4001), 9.7 ng/mL human EGF recombinant protein (Invitrogen, cat. PHG0313), 23.4 microg/mL adenine (Sigma-Aldrich, cat. A2786), 97.3 U/mL penicillin-streptomycin (Invitrogen, cat. 15140122), 1.9 mM L-glutamine (Invitrogen, cat. 25030081), and 9.7 microM Y-27632 dihydrochloride (Tocris Bioscience, Bristol, United Kingdom, cat. 1254). The PDCs were cultured in complete DMEM/F12 media without 9.7 microM Y-27632 dihydrochloride for at least two passages prior to the screen. The established cell line HOP-62 was cultured in RPMI 1640 medium, HEPES (Invitrogen, cat. 22400105) with 10% defined fetal bovine serum (HyClone Laboratories Inc., cat. SH30070.03) and 2 mM L-glutamine (Invitrogen, cat. 25030081). The pooled donor HUVEC were cultured in endothelial cell growth medium 2 (PromoCell, Heidelberg, Germany, cat. C-22011) and the hMSC were cultured in mesenchymal stem cell growth medium 2 (PromoCell, cat. C-28009). For all experiments, HUVEC and hMSC were used at passages </=5, while the malignant cell lines were used at passages </=15. […]

[1] = second compound 0.1 µM, first compound 0.0316 µM
[2] = second compound 0.1 µM, first compound 0.1 µM
[3] = second compound 0.1 µM, first compound 0.316 µM
[4] = second compound 0.1 µM, first compound 1 µM
[5] = second compound 0.1 µM, first compound 3.16 µM
[6] = second compound 0.1 µM, first compound 10 µM
[7] = second compound 0.316 µM, first compound 0.0316 µM
[8] = second compound 0.316 µM, first compound 0.1 µM
[9] = second compound 0.316 µM, first compound 0.316 µM
[10] = second compound 0.316 µM, first compound 1 µM
[11] = second compound 0.316 µM, first compound 3.16 µM
[12] = second compound 0.316 µM, first compound 10 µM
[13] = second compound 1 µM, first compound 0.0316 µM
[14] = second compound 1 µM, first compound 0.1 µM
[15] = second compound 1 µM, first compound 0.316 µM
[16] = second compound 1 µM, first compound 1 µM
[17] = second compound 1 µM, first compound 3.16 µM
[18] = second compound 1 µM, first compound 10 µM
[19] = second compound 3.16 µM, first compound 0.0316 µM
[20] = second compound 3.16 µM, first compound 0.1 µM
[21] = second compound 3.16 µM, first compound 0.316 µM
[22] = second compound 3.16 µM, first compound 1 µM
[23] = second compound 3.16 µM, first compound 3.16 µM
[24] = second compound 3.16 µM, first compound 10 µM
[25] = second compound 10 µM, first compound 0.0316 µM
[26] = second compound 10 µM, first compound 0.1 µM
[27] = second compound 10 µM, first compound 0.316 µM
[28] = second compound 10 µM, first compound 1 µM
[29] = second compound 10 µM, first compound 3.16 µM
[30] = second compound 10 µM, first compound 10 µM
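Also: spheroids exposed to agents for 7 days.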

Row | Compound | IC50 (second compound 0.1 µM) [nM] | IC50 (second compound 0.316 µM) [nM] | IC50 (second compound 1 µM) [nM] | IC50 (second compound 3.16 µM) [nM] | IC50 (second compound 10 µM) [nM] | viability, T/C [1] [%] | viability, T/C [2] [%] | viability, T/C [3] [%] | viability, T/C [4] [%] | viability, T/C [5] [%] | viability, T/C [6] [%] | viability, T/C [7] [%] | viability, T/C [8] [%] | viability, T/C [9] [%] | viability, T/C [10] [%] | viability, T/C [11] [%] | viability, T/C [12] [%] | viability, T/C [13] [%] | viability, T/C [14] [%] | viability, T/C [15] [%] | further results
1 | COC(=O)c1ccc2c(C(=Nc3ccc(N(C)C(=O)CN4CCN(C)CC4)cc3)c3ccccc3)c(O)[nH]c2c1 + C=CC(=O)N1CCN(c2nc(=O)n(-c3c(C)ccnc3C(C)C)c3nc(-c4c(O)cccc4F)c(F)cc23)C(C)C1 | 3690 | 2350 | 1780 | 1860 | 1540 | 98.2 | 100 | 95.3 | 94.8 | 57.7 | 0.25 | 104 | 103 | 93.8 | 96.1 | 34.2 | 0.2 | 106 | 108 | 96.3 | viability, T/C [16]: 88.1%; viability, T/C [17]: 12.5%; viability, T/C [18]: 0.2%; viability, T/C [19]: 104%; viability, T/C [20]: 106%; viability, T/C [21]: 102%; viability, T/C [22]: 90%; viability, T/C [23]: 15.7%; viability, T/C [24]: 0.22%; viability, T/C [25]: 97.9%; viability, T/C [26]: 98.2%; viability, T/C [27]: 87.1%; viability, T/C [28]: 73%; viability, T/C [29]: 12.3%; viability, T/C [30]: 0.26%
2 | O=C(c1cc(Cc2n[nH]c(=O)c3ccccc23)ccc1F)N1CCN(C(=O)C2CC2)CC1 + C=CC(=O)N1CCN(c2nc(=O)n(-c3c(C)ccnc3C(C)C)c3nc(-c4c(O)cccc4F)c(F)cc23)C(C)C1 | > 10000 | > 10000 | > 10000 | > 10000 | > 10000 | 107 | 107 | 99.6 | 100 | 99.8 | 93.9 | 109 | 102 | 102 | 103 | 101 | 92.3 | 109 | 113 | 106 | viability, T/C [16]: 99.2%; viability, T/C [17]: 102%; viability, T/C [18]: 91.1%; viability, T/C [19]: 105%; viability, T/C [20]: 111%; viability, T/C [21]: 106%; viability, T/C [22]: 99.7%; viability, T/C [23]: 99.6%; viability, T/C [24]: 97.2%; viability, T/C [25]: 97.9%; viability, T/C [26]: 100%; viability, T/C [27]: 94.2%; viability, T/C [28]: 94.5%; viability, T/C [29]: 96.4%; viability, T/C [30]: 85.2%
